In ChEMBL document CHEMBL1133986, “Design and synthesis of new potent human cytomegalovirus (HCMV) inhibitors based on internally hydrogen-bonded 1,6-naphthyridines” (Bioorg Med Chem Lett, 2001) one finds CC50 and IC50 data, which are given here for 13 compounds.

Values after ≈ are worked out from the molar mass of the structure shown.

Assay [1] relates to Hs68. The assay can be described thus: Cytotoxicity against the Hs 68 cell line. Type of assay: functional. Conditions: Homo sapiens.
The subject of assay [2] is Hs68. As to the kind of experiment: Inhibitory activity against Human cytomegalovirus (HCMV) in Hs 68 cell line determined by plaque reduction assay. Type of assay: functional, cell-based.

`O=C(Nc1ccccc1)Nc1ccc2cnccc2n1` displayed a CC50 in the assay on Hs68 [1] greater than 100 µg/mL. Besides, in the assay on Hs68 [2], the IC50 was greater than 25 µg/mL.

In turn, `CCOc1ccccc1C/N=C(\S)c1ccc2cnccc2n1` came in with a half-maximal cytotoxic concentration (CC50) in the assay on Hs68 [1] of 4.6 µg/mL (≈ 14.2 µM). Further, the half-inhibitory concentration (IC50) in the assay on Hs68 [2] came to 0.1 µg/mL (≈ 0.309 µM).

With `COc1ccccc1NC(=O)Nc1ccc2cnccc2n1`, the CC50 in the assay on Hs68 [1] turned out to be 33.9 µg/mL (≈ 115 µM). Moreover, in the assay with Hs68 [2], the 50% inhibitory concentration (IC50) is 1.2 µg/mL (≈ 4.08 µM).

The compound `CCOc1ccccc1NC(=O)Nc1ccc2cnccc2n1` showed a CC50 with Hs68 [1] of 1.7 µg/mL (≈ 5.51 µM). This compound had an IC50 in the assay on Hs68 [2] of 0.14 µg/mL (≈ 0.454 µM).

Consider `COc1ccccc1C/N=C(\S)c1ccc2cnccc2n1`, for which the CC50 in the assay on Hs68 [1] came out at 8.1 µg/mL (≈ 26.2 µM). In addition, the IC50 in the assay on Hs68 [2] was determined as 0.93 µg/mL (≈ 3.01 µM).

Compound `CCOc1ccccc1NC(=O)Nc1nc2ccncc2cc1C` displayed a CC50 with Hs68 [1] greater than 100 µg/mL. The compound also registered a 50% inhibitory concentration (IC50) with Hs68 [2] greater than 25 µg/mL.

Regarding `CCOc1ccccc1NC(=O)Nc1ccc2cncc(Br)c2n1`, half-maximal cytotoxicity in the assay with Hs68 [1] (CC50) was put at 9.3 µg/mL (≈ 24 µM). In the assay with Hs68 [2], this compound had a half-maximal inhibitory concentration (IC50) of 0.46 µg/mL (≈ 1.19 µM).

For the compound `COc1ccccc1CNC(=O)Nc1ccc2cnccc2n1`, the 50% cytotoxic concentration (CC50) in the assay on Hs68 [1] is 13 µg/mL (≈ 42.2 µM). The compound also showed an IC50 in the assay on Hs68 [2] of 1 µg/mL (≈ 3.24 µM).

For `CC(C)Oc1ccccc1NC(=O)Nc1ccc2cnccc2n1`, the cytotoxic concentration (CC50) in the assay with Hs68 [1] turned out to be 30.2 µg/mL (≈ 93.7 µM). 0.03 µg/mL (≈ 0.0931 µM) corresponded to half-maximal inhibition in the assay with Hs68 [2] (IC50).

As to `CC(C)Oc1ccccc1C/N=C(\S)c1ccc2cnccc2n1`, in the assay with Hs68 [1], it took 11.1 µg/mL (≈ 32.9 µM) to reach half-maximal cytotoxicity (CC50). Further, inhibition in the assay on Hs68 [2] was half-maximal at 0.16 µg/mL (≈ 0.474 µM) (IC50).

Regarding `O=C(NCc1ccccc1)Nc1ccc2cnccc2n1`, the midpoint of cytotoxicity in the assay with Hs68 [1], the CC50, lay at 0.37 µg/mL (≈ 1.33 µM). In the assay with Hs68 [2], this compound returned a 50% inhibitory concentration (IC50) of 0.29 µg/mL (≈ 1.04 µM).

`CC(C)Oc1ccccc1CNC(=O)Nc1ccc2cnccc2n1`: in the assay on Hs68 [1], the CC50 was 18.9 µg/mL (≈ 56.2 µM). 0.01 µg/mL (≈ 0.0297 µM) corresponded to half-maximal inhibition in the assay on Hs68 [2] (IC50).

The compound `CCOc1ccccc1NC(=O)Nc1nc2ccncc2cc1C#N` yielded a CC50 with Hs68 [1] of less than 25 µg/mL. Moreover, the half-maximal inhibitory concentration (IC50) in the assay on Hs68 [2] is greater than 25 µg/mL.
